Reference: patent publication US8007921B2, “Gypsum board containing antimicrobial and antibacterial compounds” (Quick-Med Technologies, Inc., priority 2003, dated 2011)

How the values were obtained:
[1] = cited from earlier work
S. aureus bacteria = test: zone of inhibition of extract solutions on agar culture plate; type: cell-based
Procedure: A nonwoven rayon gauze material (SofWick, a commercially available rayon gauze material manufactured by Johnson & Johnson) was graft polymerized with diallyldimethylammonium chloride (DADAMC) to 10 weight % poly(DADMAC), to form the cationic cellulose surface. Each gauze substrate treated in this manner measured approximately 40 square inches. One gram samples of cationic cellulose prepared in this manner (sample K), and untreated SofWick (sample L) were each soaked overnight in 25 ml of 0.5% SP solution. Samples were removed and squeezed to remove excess liquid. Samples were then washed in 25 mL of distilled water for one hour with agitation, and then squeezed to remove excess liquid. Each sample was subjected to four sequential extractions using 25 mL of distilled water for one hour at room temperature with agitation. Samples were squeezed to remove excess solution between extraction cycles. A fifth extraction was performed using pH 7.4 phosphate buffered saline (PBS). Saline is expected to remove a greater amount of pyrithione due to ion exchange. The extract solutions were tested for antimicrobial activity by placing single 20 microliter drops of the solutions at marked locations on an agar culture plate spread with ~3×10^3 CFU (continuous lawn) of S. aureus bacteria. Plates were incubated overnight at 37° C., and the diameter of the “zone of inhibition”, or “ZOI” was measured. […]

Zinc pyrithione
max. solubility in water ([1]; water): 0.0015%

[Na+].[O-][n+]1ccccc1[S-] [SP, sodium pyrithione]
ZOI (S. aureus bacteria; 0.01% SP control solution): 12 mm | ZOI (S. aureus bacteria; 0.1% SP control solution): 26 mm | water solubility (aqueous solutions possible) ([1]; aqueous): > 50 wt %
